According to US4464354A, “(3,4-c)-Pyrido psoralens, process of preparation, application in cosmetology and therapeutics, and cosmetological and pharmaceutical composition with them” (Institut National de la Sante et de la Recherche Medicale, priority 1982, dated 1984):
Entries after “also recorded” stand apart in the source; their conditions may differ.

Assays:
[1] = system: psoriasis; conditions: human, in vivo; cited from earlier work
[2] = mice, after exposure to light in the near ultraviolet range around 365 nm; cited from earlier work
[3] = system: normal human skin; assay: erythema test on normal human skin (forearm); format: in vivo; conditions: for erythematogenicity (conclusion): in vivo
Experimental: The clinical and therapeutic activity of compounds 1a and 1b has been also measured on human skin. 10 mg of compounds 1a and 1b were diluted in 2 g of a purified lanolin commercially available under the name ROC hydrocerine which was made liquid by heating to 60° C. This local preparation was first tested on normal human skin (of the forearm). An amount of 10 micrograms/cm2 of products 1a and 1b was applied to a circular cutaneous surface 3 cm in diameter. The two products were left on the skin for 2 hours to insure a sufficient cutaneous penetration. […] The same experiment was repeated a second time with irradiation of 20 J/cm2 through a glass plate in order to filter out all the ultraviolet B radiation. […] This erythema, slightly apparent, continued for 18 days. […] The […] result of the reflective photoplethysmograph were totally identical for products 1a and 1b. […] The […] only appeared in doses of irradiation where are twice that customarily used in a therapeutic treatment.

[4] = system: Saccharomyces cerevisiae yeast; assay: induction of lethal effects in yeast with 365 nm irradiation (UVA); format: cell-based; conditions: for photodynamic activity (oxygen dependent) on induction of lethal damages: yeast
Experimental: (§1) This photobiological activity has in effect been defined by the induction of lethal effects, the induction of "small colony" cytoplasmic mutations (damage in the mitochondrial DNA) and the induction of nuclear mutations (reverse and forward). The experiments were conducted in the customary manner in conformity with the following references:
Thus, the dose of UVA must be between 2.5 and 5 times weaker in the case of compounds 1a and 1b than in the case of 8-MOP to attain the same survival rate.

[5] = system: synthesis of RNA; assay: photosensitizer effect on RNA synthesis in human fibroblasts; format: cell-based; conditions: UVA 365 nm
Excerpt: (§2) (F. Bordin, F. Baccichetti and L. Musajo, Experientia 28, 148 (1972)).
(§3) The cells cultivated in Petri dishes having a minimum Eagle medium with 10% embryonic calf serum were marked by precursors which were specific to the exponential phase of growth. The rates of synthesis were estimated by measuring the incorporation of the radioactive precursors in the acid-precipitable material (see S. Nocentini, Biochim. Biophys., Acta 521, 160 (1978)).

[6] = system: Saccharomyces cerevisiae yeast; assay: induction of forward mutations (resistance to canavanine); format: cell-based
Experimental: This photobiological activity has in effect been defined by the induction of lethal effects, the induction of "small colony" cytoplasmic mutations (damage in the mitochondrial DNA) and the induction of nuclear mutations (reverse and forward). The experiments were conducted in the customary manner in conformity with the following references: […]

[7] = system: DNA of cells of the wild type; assay: direct biochemical verification of cross-linking in DNA of cells treated and irradiated at 365 nm; format: cell-based, yeast
Excerpt: Indeed, DNA of cells of the wild type were extracted immediately after treatment with products 1a, 1b at a concentration of 10^-5 M and irradiation with two doses of radiation at 365 nm (30% and 5% survival rate). […] If the DNA contains cross-links it renatures itself and is found in the double chain form separable by gradient density from single chain DNA.

[8] = system: haploid strain of Saccharomyces cerevisiae yeast; assay: induction of nuclear mutations: His+ reversions; format: cell-based; conditions: 5×10^-6 M, same survivor rate
Experimental: as §1
The induction of nuclear mutations (reversions and "forward" mutations) has been determined according to procedures described in the above-mentioned articles.

[9] = system: psoriatic plaque; assay: therapeutic test on psoriatic plaque, products 1a and 1b; format: in vivo, human
Experimental: 10 mg of compounds 1a and 1b were diluted in 2 g of a purified lanolin commercially available under the name ROC hydrocerine which was made liquid by heating to 60° C. Products 1a and 1b have also been tested in the same excipient on a high inflammatory psoriatic plaque. These two products were applied to surfaces having a 3 cm diameter. On a third surface the excipient alone was applied. […] The products and the lanolin alone were applied 2 hours before irradiation. […] This whitening was practically as fast in the zones treated with products 1a and 1b. The zone treated with lanolin alone remained unchanged.

[10] = system: synthesis of DNA; assay: photosensitizer effect on DNA synthesis in human fibroblasts; format: cell-based; conditions: UVA 365 nm
Excerpt: as §2, §3

[11] = system: normal skin; assay: pigmentogenic properties on normal skin; format: in vivo, human; conditions: 0.5%
Excerpt: The pigmentogenic properties of products 1a and 1b have been tested on normal skin at a concentration of 0.5%.

[12] = spectroscopic absorption properties; format: physicochemical; conditions: compared with psoralen
Excerpt: Compounds 1a and 1b have similar spectroscopic properties which differ markedly with respect to those of psoralen.

[13] = system: mitochondrial DNA; assay: induction of "small colony" cytoplasmic mutations; format: cell-based, Saccharomyces cerevisiae; conditions: in 10% of the survivors
Experimental: as §1
If the induction of cytoplasmic mutations is considered as a function of the survivors, the compounds 1a and 1b which are monofunctional derivatives of psoralen, show in 10% of the survivors a rate of induction of cytoplasmic mutation greater than 50%.

[14] = mutagenicity (general statements)
[15] = system: psoriatic plaque; assay: therapeutic test comparing 8-methoxypsoralen and product 1b; format: in vivo, human; conditions: 10^-2 M
Excerpt: The concentrations of 8-MOP and product 1b were 10^-2 M in the same excipient as that used in the previous therapeutic test. Both preparations were applied on two rounded zones 3 cm in diameter, located on the same psoriatic plaque and were irradiated according to the same procedure of gradually increasing ultraviolet irradiation until a maximum of 10 J/cm2 per treatment.

[16] = system: DNA; assay: photoaffinity for DNA in vivo; format: cell-based, yeast
[17] = system: yeast mutant pso2; assay: sensitivity of yeast mutant pso2 versus wild type to photo-addition
[18] = system: V79 chinese hamster cells; assay: antiproliferatory effect: inhibition of colony formation of V79 cells; format: cell-based; conditions: 5×10^-6 M
Experimental: The photobiological activity of the two monofunctional componds 1a and 1b have been studied in mammalian cells in vitro in order to determine their antiproliferatory effect.
A diploid strain of V79 chinese hamster cells were used.
The action of the compounds on cell survival (i.e. the antiproliferatory effect) was determined by measuring their power to inhibit the capacity of cells to form colonies. The technique used is that described by C.

[19] = system: DNA; assay: formation of cross-links in DNA (general statements); format: biochemical; conditions: from induction of cytoplasmic and nuclear mutations
[20] = 30 micrograms/cm2, by the tenth treatment
[21] = 30 micrograms/cm2, from the fourth treatment
[22] = 10 micrograms/cm2, UVA 20 J/cm2

## CCOC(=O)c1cc2cc3ccoc3cc2oc1=O [3-carbethoxypsoralen, reference compound]
[1]
  therapeutic activity in patients having psoriasis: having a therapeutic activity in respect to patients having psoriasis
[2]
  carcinogenicity: completely safe from this point of view
[3]
  erythematogenicity (conclusion): is not
[4]
  photodynamic activity (oxygen dependent) on induction of lethal damages: different

## Cc1c2occc2cc2c1oc(=O)c1cnccc12 [Compound 1b, Methyl-7-pyrido (3,4-c) furo (3,2-g) coumarin]
[5]
  inhibition capacity (RNA) compared with 3-CPs: much more than 3-CPs
  inhibition capacity (RNA) compared with 8-MOP: slightly more powerful than 8-MOP
[6]
  forward mutations as a function of surviving fractions compared with 3-CPs, 8-MOP and 4,5',8-TMeP: markedly less mutagenic than 3-CPs and the bifunctional compounds 8-MOP and 4,5', 8-TMeP
[6]; 5×10^-6 M versus 3-CPs at 5×10^-5 M
  forward mutations as a function of UVA doses compared with 3-CPs: comparable to those obtained with 3-CPs at 5×10^-5 M
[7]; 10^-5 M, 365 nm, two doses (30% and 5% survival rate)
  form of DNA after renaturation (cross-links): remains in single chain form after renaturation
[7]; pso2 mutant and direct examination of DNA
  functional type (mono/bifunctional): mono functional type
[8]
  His+ reversions rate compared with 3-CPs: less than that observed after the treatment with 3-CPs
  His+ reversions rate compared with 8-MOP and 4,5',8-TMeP: very much less than that observed after treatment with the bifunctional agents 8-MOP and 4,5', 8-TMeP
[9]; 30 μg/cm2 two hours before UVA
  antipsoriatic action, third patient: complete whitening of the psoriasis
  antipsoriatic action, two of three patients: moderately better than product 1a
  pigmentogenic effect, two of three patients: more pigmentogenic
[9]; 10 treatments of PUVA, total dose 50 J/cm2
  antipsoriatic action of product 1b versus 1a (overall): antipsoriatic action superior to that of product 1a
[9]; 30 micrograms/cm2
  erythema or secondary effect during treatments: no erythema or secondary effect was observed
  hyperpigmentation: hyperpigmentation was found in the two zones, in particular the one treated with product 1b
[9]; [20]
  total UVA dose to complete whitening: 50 J/cm2
  whitening of treated zones: complete whitening of the zones treated
[9]; [21]
  decrease of squamae: slight decrease of the squamae
  reduction of infiltration: tangible reduction of the infiltration
[9]; applied locally
  antipsoriatic activity (conclusion): good antipsoriatic activity; also recorded: best therapeutic results
[10]
  inhibition capacity (DNA) compared with 3-CPs: much more than 3-CPs
  inhibition capacity (DNA) compared with 8-MOP: slightly more powerful than 8-MOP
[11]
  pigmentogenic properties, 1b versus 1a: superior to those of product 1a; also recorded: more pigmentogenic than product 1a
[11]; three normal patients, total UVA doses of 140 J/cm2
  pigmentation of normal skin: Visible pigmentation was observed on three normal patients tested with product 1b in all three cases
[12]
  coefficient of molecular absorption at 365 nm: notably a higher coefficient of molecular absorption at 365 nm
[13]
  rate of induction of cytoplasmic mutation: greater than 50%
[14]
  mutagenicity compared with 3-carbethoxypsoralen (conclusion): less mutagenic than 3-carbethoxypsoralen
[15]; one patient without further treatment
  deterioration after end of treatment: practically no deterioration
[15]; three patients, up to 10 J/cm2 per treatment
  antipsoriatic effectiveness compared with 8-methoxypsoralen: more effective than 8-methoxypsoralen
[16]
  photoaffinity for DNA in vivo compared with 3-CPs: makedly much high than that of monofunctional furocoumarin 3-CPs
  photoaffinity for DNA in vivo relative to 8-MOP: ~20 times
  photoaffinity in respect to DNA compared with 8-MOP (conclusion): markedly greater than that of 8-MOP
[3]; 10 micrograms/cm2, 2 hours before UVA 5 J/cm2
  erythema at 5 J/cm2: no precocious or delayed erythema was observed
[3]; [22]
  duration of erythema: 18 days
  time of appearance of erythema: 72 h
[3]; 10 micrograms/cm2, UVA 20 J/cm2 through glass plate
  erythema at 20 J/cm2: slight erythema
[3]; UVA 20 J/cm2
  desquamation or local pain: no desquamation or local pain
  systolic pulse of the capillaries at erythematic zones (reflective photoplethysmography): doubling of the systolic pulse
[3]
  erythematogenicity (conclusion): not erythmatogenic in conditions of irradiation customarily used in human therapy; also recorded: very mildly erythmatogenic
[17]
  photoreactivity on yeast strains: very photoreactive
[17]; photo-addition
  sensitivity of pso2 mutant compared with wild type: same sensitivity as the wild type
[18]; UVA
  LD10 (dose which leaves 10% survive): 540 J/cm2
  considerable photosensitivity in V79 cells: considerable photosensitivity
  relative antiproliferatory effect: markedly more effective than compound 1a; also recorded: compared to 8-MOP, a higher antiproliferatory effect; also recorded: comparable to that of bifunctional furocoumarins
[18]; no radiation
  diminution of cell survival in absence of radiation: no diminution of cell survival
[4]
  photoreactivity compared with 4,5',8-trimethylpsoralen (conclusion): close to that of 4,5'-8-trimethylpsoralen
  photodynamic activity (oxygen dependent) on induction of lethal damages: do not exert on the yeast photodynamic activity
[4]; 5×10^-6 M, survival curves
  activity on cell survival relative to 8-MOP: 5 times
[4]; equimolar 5×10^-6 M
  activity compared with 4,5',8-trimethylpsoralen: activity close to that of 4,5', 8-trimethylpsoralen
[19]
  formation of cross-links in the DNA (conclusion): incapable of forming cross-links in the DNA
